Source: ChEMBL document CHEMBL3046025, “Fungitoxic Properties of N-Phenylformamidoximes in Control of Benzimidazole-Resistant Isolates of Fungi” (1992)

Legend:
Assay type in all cases: functional
Cercospora beticola [1] = test: Antifungal activity against Benzimidalzole-resistant Cercospora beticola isolate Cb-19 infected in sugar beet seedlings at 12.5 ppm treated as foliar application 7 days prior to inoculation
Cercospora beticola [2] = test: Antifungal activity against Benzimidalzole-resistant Cercospora beticola isolate Cb-19 infected in sugar beet seedlings at 50 ppm treated as foliar application 7 days prior to inoculation
Cercospora beticola [3] = test: Antifungal activity against Benzimidalzole-resistant Cercospora beticola isolate Cb-19 infected in sugar beet seedlings at 200 ppm treated as foliar application 7 days prior to inoculation
Cercospora beticola [4] = test: Antifungal activity against Benzimidalzole-resistant Cercospora beticola isolate Cb-19 infected in sugar beet seedlings at 200 ppm 24 hr-post inoculation
Cercospora beticola [5] = test: Antifungal activity against Benzimidalzole-resistant Cercospora beticola isolate Cb-19 infected in sugar beet seedlings at 200 ppm applied as soil drench 3 days prior to inoculation
Cercospora beticola [6] = test: Antifungal activity against Benzimidalzole-sensitive Cercospora beticola isolate 18-1 infected in compound-treated sugar beet seedlings at 200 ppm after 12 days
Cercospora beticola [7] = test: Antifungal activity against Benzimidalzole-sensitive Cercospora beticola isolate 18-1 infected in compound-treated sugar beet seedlings at 50 ppm after 12 days
Cercospora beticola [8] = test: Antifungal activity against Benzimidalzole-sensitive Cercospora beticola isolate 18-1 infected in compound-treated sugar beet seedlings at 12.5 ppm after 12 days
Cercospora beticola [9] = test: Antifungal activity against Benzimidalzole-resistant Cercospora beticola isolate 18-2 infected in compound-treated sugar beet seedlings at 3.1 ppm after 12 days
Cercospora beticola [10] = test: Antifungal activity against Benzimidalzole-resistant Cercospora beticola isolate 18-2 infected in compound-treated sugar beet seedlings at 12.5 ppm after 12 days
Cercospora beticola [11] = test: Antifungal activity against Benzimidalzole-resistant Cercospora beticola isolate 18-2 infected in compound-treated sugar beet seedlings at 50 ppm after 12 days
Cercospora beticola [12] = test: Antifungal activity against Benzimidalzole-resistant Cercospora beticola isolate 18-2 infected in compound-treated sugar beet seedlings at 200 ppm after 12 days
Cercospora beticola [13] = test: Antifungal activity against Benzimidalzole-resistant Cercospora beticola isolate Cb-19 infected in compound-treated sugar beet seedlings at 3.1 ppm after 12 days
Cercospora beticola [14] = test: Antifungal activity against Benzimidalzole-resistant Cercospora beticola isolate Cb-19 infected in compound-treated sugar beet seedlings at 50 ppm after 12 days
Cercospora beticola [15] = test: Antifungal activity against Benzimidalzole-resistant Cercospora beticola isolate Cb-19 infected in compound-treated sugar beet seedlings at 12.5 ppm after 12 days
Cercospora beticola [16] = test: Antifungal activity against Benzimidalzole-resistant Cercospora beticola isolate Cb-19 infected in compound-treated sugar beet seedlings at 200 ppm after 12 days
Cercospora beticola [17] = test: Antifungal activity against Benzimidalzole-resistant Cercospora beticola isolate 20-2 infected in compound-treated sugar beet seedlings at 3.1 ppm after 12 days
Cercospora beticola [18] = test: Antifungal activity against Benzimidalzole-resistant Cercospora beticola isolate 20-2 infected in compound-treated sugar beet seedlings at 12.5 ppm after 12 days
Cercospora beticola [19] = test: Antifungal activity against Benzimidalzole-resistant Cercospora beticola isolate 20-2 infected in compound-treated sugar beet seedlings at 50 ppm after 12 days
Cercospora beticola [20] = test: Antifungal activity against Benzimidalzole-resistant Cercospora beticola isolate 20-2 infected in compound-treated sugar beet seedlings at 200 ppm after 12 days
Cercospora beticola [21] = test: Antifungal activity against Benzimidalzole-sensitive Cercospora beticola isolate 18-1 infected in compound-treated sugar beet seedlings at 3.1 ppm after 12 days
Botrytis cinerea [22] = test: Antifungal activity against Benzimidalzole-resistant Botryotinia fuckeliana isolate Bc-44 infected kidney bean leaves at 12.5 ppm treated as foliar application followed by incubation for 7 days in green house condition
Botrytis cinerea [23] = test: Antifungal activity against Benzimidalzole-resistant Botryotinia fuckeliana isolate Bc-44 infected kidney bean leaves at 50 ppm treated as foliar application followed by incubation for 7 days in green house condition
Botrytis cinerea [24] = test: Antifungal activity against Benzimidalzole-resistant Botryotinia fuckeliana isolate Bc-44 infected kidney bean leaves at 200 ppm treated as foliar application followed by incubation for 7 days in green house condition
Botrytis cinerea [25] = test: Antifungal activity against Benzimidalzole-resistant Botryotinia fuckeliana isolate Bc-44 infected kidney bean leaves at 50 ppm applied as soil drench 3 days prior to inoculation
Botrytis cinerea [26] = test: Antifungal activity against Benzimidalzole-resistant Botryotinia fuckeliana isolate Bc-44 infected kidney bean leaves at 200 ppm applied as soil drench 3 days prior to inoculation
Botrytis cinerea [27] = test: Antifungal activity against Benzimidalzole-sensitive Botryotinia fuckeliana isolate Bc-9 infected compound-treated kidney bean leaves at 12.5 ppm after 4 days
Botrytis cinerea [28] = test: Antifungal activity against Benzimidalzole-sensitive Botryotinia fuckeliana isolate Bc-9 infected compound-treated kidney bean leaves at 50 ppm after 4 days
Botrytis cinerea [29] = test: Antifungal activity against Benzimidalzole-sensitive Botryotinia fuckeliana isolate Bc-9 infected compound-treated kidney bean leaves at 200 ppm after 4 days
Botrytis cinerea [30] = test: Antifungal activity against Benzimidalzole-resistant Botryotinia fuckeliana isolate Bc-44 infected compound-treated kidney bean leaves at 12.5 ppm after 4 days
Botrytis cinerea [31] = test: Antifungal activity against Benzimidalzole-resistant Botryotinia fuckeliana isolate Bc-44 infected compound-treated kidney bean leaves at 50 ppm after 4 days
Botrytis cinerea [32] = test: Antifungal activity against Benzimidalzole-resistant Botryotinia fuckeliana isolate Bc-44 infected compound-treated kidney bean leaves at 200 ppm after 4 days
Botrytis cinerea [33] = test: Antifungal activity against Benzimidalzole-resistant Botryotinia fuckeliana isolate Bc-20 infected compound-treated kidney bean leaves at 3.1 ppm after 4 days
Botrytis cinerea [34] = test: Antifungal activity against Benzimidalzole-resistant Botryotinia fuckeliana isolate Bc-20 infected compound-treated kidney bean leaves at 12.5 ppm after 4 days
Botrytis cinerea [35] = test: Antifungal activity against Benzimidalzole-resistant Botryotinia fuckeliana isolate Bc-20 infected compound-treated kidney bean leaves at 200 ppm after 4 days
Botrytis cinerea [36] = test: Antifungal activity against Benzimidalzole-resistant Botryotinia fuckeliana isolate Bc-20 infected compound-treated kidney bean leaves at 50 ppm after 4 days
Botrytis cinerea [37] = test: Antifungal activity against Benzimidalzole-sensitive Botryotinia fuckeliana isolate Bc-9 infected compound-treated kidney bean leaves at 3.1 ppm after 4 days
Botrytis cinerea [38] = test: Antifungal activity against Benzimidalzole-resistant Botryotinia fuckeliana isolate Bc-44 infected kidney bean leaves at 3.1 ppm 24 hr post-infection measured after 3 days
Botrytis cinerea [39] = test: Antifungal activity against Benzimidalzole-resistant Botryotinia fuckeliana isolate Bc-44 infected kidney bean leaves at 12.5 ppm 24 hr post-infection measured after 3 days
Botrytis cinerea [40] = test: Antifungal activity against Benzimidalzole-resistant Botryotinia fuckeliana isolate Bc-44 infected kidney bean leaves at 50 ppm 24 hr post-infection measured after 3 days
Botrytis cinerea [41] = test: Antifungal activity against Benzimidalzole-resistant Botryotinia fuckeliana isolate Bc-44 infected kidney bean leaves at 200 ppm 24 hr post-infection measured after 3 days
Botrytis cinerea [42] = test: Antifungal activity against Benzimidalzole-resistant Botryotinia fuckeliana isolate Bc-44 infected compound-treated kidney bean leaves at 3.1 ppm after 4 days
Botrytis cinerea [43] = test: Antifungal activity against Benzimidalzole-sensitive Botryotinia fuckeliana isolate Bc-9 infected kidney bean leaves at 12.5 ppm 24 hr post-infection measured after 3 days
Cercospora beticola [44] = test: Antifungal activity against Benzimidalzole-sensitive Cercospora beticola isolate 18-1 infected in sugar beet seedlings at 3.1 ppm 24 hr-post inoculation
Cercospora beticola [45] = test: Antifungal activity against Benzimidalzole-sensitive Cercospora beticola isolate 18-1 infected in sugar beet seedlings at 12.5 ppm 24 hr-post inoculation
Cercospora beticola [46] = test: Antifungal activity against Benzimidalzole-sensitive Cercospora beticola isolate 18-1 infected in sugar beet seedlings at 50 ppm 24 hr-post inoculation
Cercospora beticola [47] = test: Antifungal activity against Benzimidalzole-sensitive Cercospora beticola isolate 18-1 infected in sugar beet seedlings at 200 ppm 24 hr-post inoculation
Botrytis cinerea [48] = test: Antifungal activity against Benzimidalzole-sensitive Botryotinia fuckeliana isolate Bc-9 infected kidney bean leaves at 200 ppm applied as soil drench 3 days prior to inoculation
Botrytis cinerea [49] = test: Antifungal activity against Benzimidalzole-sensitive Botryotinia fuckeliana isolate Bc-9 infected kidney bean leaves at 200 ppm treated as foliar application followed by incubation for 7 days in green house condition
Cercospora beticola [50] = test: Antifungal activity against Benzimidalzole-sensitive Cercospora beticola isolate 18-1 infected in sugar beet seedlings at 200 ppm applied as soil drench 3 days prior to inoculation
Cercospora beticola [51] = test: Antifungal activity against Benzimidalzole-sensitive Cercospora beticola isolate 18-1 infected in sugar beet seedlings at 12.5 ppm treated as foliar application 7 days prior to inoculation
Cercospora beticola [52] = test: Antifungal activity against Benzimidalzole-sensitive Cercospora beticola isolate 18-1 infected in sugar beet seedlings at 50 ppm treated as foliar application 7 days prior to inoculation
Cercospora beticola [53] = test: Antifungal activity against Benzimidalzole-sensitive Cercospora beticola isolate 18-1 infected in sugar beet seedlings at 200 ppm treated as foliar application 7 days prior to inoculation
Botrytis cinerea [54] = test: Antifungal activity against Benzimidalzole-sensitive Botryotinia fuckeliana isolate Bc-9 infected kidney bean leaves at 50 ppm 24 hr post-infection measured after 3 days
Botrytis cinerea [55] = test: Antifungal activity against Benzimidalzole-sensitive Botryotinia fuckeliana isolate Bc-9 infected kidney bean leaves at 200 ppm 24 hr post-infection measured after 3 days

Row | Molecule | Activity (Cercospora beticola [6]) [%] | Activity (Cercospora beticola [7]) [%] | Activity (Cercospora beticola [8]) [%] | Activity (Cercospora beticola [11]) [%] | Activity (Cercospora beticola [12]) [%] | Activity (Cercospora beticola [14]) [%] | Activity (Cercospora beticola [16]) [%] | Activity (Cercospora beticola [17]) [%] | Activity (Cercospora beticola [18]) [%] | Activity (Cercospora beticola [19]) [%] | Activity (Cercospora beticola [20]) [%] | Activity (Cercospora beticola [21]) [%] | Activity (Botrytis cinerea [27]) [%] | Activity (Botrytis cinerea [28]) [%] | Activity (Botrytis cinerea [29]) [%] | Activity (Botrytis cinerea [30]) [%] | Activity (Botrytis cinerea [31]) [%] | Activity (Botrytis cinerea [32]) [%] | Activity (Botrytis cinerea [34]) [%] | Activity (Botrytis cinerea [35]) [%] | other results
1 | TRIPHENYLSTANNANOL | 100 | 100 | 88 | 100 | 100 | 100 | 100 | 69 | 94 | 100 | 100 | 75 |  |  |  |  |  |  |  |  | Activity (Cercospora beticola [1]): 65%; Activity (Cercospora beticola [2]): 90%; Activity (Cercospora beticola [3]): 100%; Activity (Cercospora beticola [4]): 0%; Activity (Cercospora beticola [5]): 0%; Activity (Cercospora beticola [9]): 56%; Activity (Cercospora beticola [10]): 80%; Activity (Cercospora beticola [13]): 60%; Activity (Cercospora beticola [15]): 78%
2 | C=CC1(C)OC(=O)N(c2cc(Cl)cc(Cl)c2)C1=O (stereo unspecified) [VINCLOZOLIN] |  |  |  |  |  |  |  |  |  |  |  |  | 90 | 100 | 100 | 77 | 100 | 100 | 82 | 100 | Activity (Botrytis cinerea [22]): 45%; Activity (Botrytis cinerea [23]): 75%; Activity (Botrytis cinerea [24]): 91%; Activity (Botrytis cinerea [25]): 56%; Activity (Botrytis cinerea [26]): 93%; Activity (Botrytis cinerea [33]): 31%; Activity (Botrytis cinerea [36]): 100%; Activity (Botrytis cinerea [37]): 39%; Activity (Botrytis cinerea [38]): 70%; Activity (Botrytis cinerea [39]): 97%; Activity (Botrytis cinerea [40]): 100%; Activity (Botrytis cinerea [41]): 100%; Activity (Botrytis cinerea [42]): 21%
3 | COC(=O)NC(=S)Nc1ccccc1NC(=S)NC(=O)OC [THIOPHANATE METHYL] | 100 | 100 | 88 | 0 | 0 | 0 | 0 | 0 | 12 | 56 | 78 | 68 | 35 | 84 | 96 | 0 | 0 | 5 | 0 | 17 | Activity (Botrytis cinerea [43]): 73%; Activity (Cercospora beticola [44]): 13%; Activity (Cercospora beticola [45]): 75%; Activity (Cercospora beticola [46]): 100%; Activity (Cercospora beticola [47]): 100%; Activity (Botrytis cinerea [48]): 51%; Activity (Botrytis cinerea [49]): 93%; Activity (Botrytis cinerea [36]): 7%; Activity (Cercospora beticola [50]): 64%; Activity (Cercospora beticola [51]): 25%; Activity (Cercospora beticola [52]): 84%; Activity (Cercospora beticola [53]): 88%; Activity (Botrytis cinerea [54]): 84%; Activity (Botrytis cinerea [55]): 84%
